{"source": "patent US11098032B2", "about": "“Pyran dervatives as CYP11A1 (cytochrome P450 monooxygenase 11A1) inhibitors” (ORION CORPORATION, priority 2016, dated 2021)", "note": "Counter-ions that a name gives are not always drawn.", "data": [{"target": "T1, CYP11A1 (Homo sapiens, UniProt P05108)", "T1 construct": "human H295R adrenocortical carcinoma cell line was used as source of enzyme; endogenous in cells; host or cells: H295R human adrenocortical carcinoma cells", "T1 sequence (P05108 40-521)": "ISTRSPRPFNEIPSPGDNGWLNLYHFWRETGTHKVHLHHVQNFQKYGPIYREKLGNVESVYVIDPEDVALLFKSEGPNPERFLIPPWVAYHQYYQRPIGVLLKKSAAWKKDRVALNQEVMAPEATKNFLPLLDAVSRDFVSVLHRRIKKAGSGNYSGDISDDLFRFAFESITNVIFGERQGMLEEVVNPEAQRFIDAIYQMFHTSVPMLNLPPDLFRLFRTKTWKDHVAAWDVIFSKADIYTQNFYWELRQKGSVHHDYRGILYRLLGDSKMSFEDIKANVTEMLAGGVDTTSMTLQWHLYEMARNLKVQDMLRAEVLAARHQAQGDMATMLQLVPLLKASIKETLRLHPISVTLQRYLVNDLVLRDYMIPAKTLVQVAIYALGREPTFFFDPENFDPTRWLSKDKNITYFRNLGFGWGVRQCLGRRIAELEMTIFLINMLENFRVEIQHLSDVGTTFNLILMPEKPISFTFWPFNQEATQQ", "test": "CYP11A1 inhibition: modified isocaproic acid release assay (IARA) in H295R cells", "type": "cell-based", "conditions": "human H295R adrenocortical carcinoma cells treated three days, 3 nM [24,25-3H]-labelled cholesterol, 1% DMSO, 10 concentrations in duplicates; read-out: IC50 of the test compounds on CYP11A1 inhibition", "procedure,_shortened": "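H295R adrenocortical cells treated three days with test compounds at 10 concentrations in duplicate plus 3 nM [24,25-3H]-cholesterol, 1% DMSO final. Released radiolabelled isocaproic acid measured by scintillation counting after dextran-coated charcoal extraction; IC50 determined.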", "units": {"IC50": "nM"}, "values": [{"smiles": "CN(C)C(=O)Cc1ccc(COc2coc(CN3Cc4ccccc4C3)cc2=O)cc1", "note": "[Compound 136, 2-(4-(((6-(Isoindolin-2-ylmethyl)-4-oxo-4H-pyran-3-yl)oxy)methyl)phenyl)-N,N-dimethylacetamide]", "IC50": "150 to 300"}, {"smiles": "O=C(c1ccc(COc2coc(CN3Cc4ccccc4C3)cc2=O)cc1)N1CCCC(O)C1", "note": "(stereo not drawn) [Compound 160, 5-((4-(3-Hydroxypiperidine-1-carbonyl)benzyl)oxy)-2-(isoindolin-2-ylmethyl)-4H-pyran-4-one]", "IC50": "301 to 2000"}, {"smiles": "Nc1cccc(COc2coc(CN3Cc4ccccc4C3)cc2=O)c1", "note": "[Compound 263, 5-((3-Aminobenzyl)oxy)-2-(isoindolin-2-ylmethyl)-4H-pyran-4-one]", "IC50": "301 to 2000"}, {"smiles": "CS(=N)c1ccc(COc2coc(CN3Cc4ccccc4C3)cc2=O)cc1", "note": "(stereo not drawn) [Compound 85, 2-(Isoindolin-2-ylmethyl)-5-((4-(S-methylsulfinimidoyl)benzyl)oxy)-4H-pyran-4-one]", "IC50": "150 to 300"}, {"smiles": "CS(=O)(=O)c1ccc(COc2coc(CN3Cc4ccccc4C3)cc2=O)cc1F", "note": "[Compound 17, 5-((3-Fluoro-4-(methylsulfonyl)benzyl)oxy)-2-(isoindolin-2-ylmethyl)-4H-pyran-4-one]", "IC50": "301 to 2000"}, {"smiles": "Cc1ccc2c(c1)CN(Cc1cc(=O)c(OCc3ccc(S(C)(=O)=O)cc3)co1)C2", "note": "[Compound 279, 2-((5-Methylisoindolin-2-yl)methyl)-5-((4-(methylsulfonyl)benzyl)oxy)-4H-pyran-4-one]", "IC50": "150 to 300"}, {"smiles": "CSc1ccc(COc2coc(CN3Cc4ccccc4C3)cc2=O)cc1", "note": "[Compound 82, 2-(Isoindolin-2-ylmethyl)-5-((4-(methylthio)benzyl)oxy)-4H-pyran-4-one]", "IC50": "150 to 300"}, {"smiles": "CC(C)S(=O)(=O)c1ccc(COc2coc(CN3Cc4ccccc4C3)cc2=O)cc1", "note": "[Compound 25, 2-(Isoindolin-2-ylmethyl)-5-((4-(isopropylsulfonyl)benzyl)oxy)-4H-pyran-4-one]", "IC50": "150 to 300"}, {"smiles": "CC(C)CC(=O)N[C@@H]1C=C[C@H](COc2coc(CN3Cc4ccccc4C3)cc2=O)C1", "note": "(relative stereo) [Compound 275, Cis-N-(4-(((6-(isoindolin-2-ylmethyl)-4-oxo-4H-pyran-3-yl)oxy)methyl)cyclo-pent-2-en-1-yl)-3-methylbutanamide, Formate]", "IC50": "301 to 2000"}, {"smiles": "CN(C)C(=O)C1CCC(COc2coc(CN3Cc4ccccc4C3)cc2=O)CC1", "note": "(stereo not drawn) [Compound 217, 4-(((6-(Isoindolin-2-ylmethyl)-4-oxo-4H-pyran-3-yl)oxy)methyl)-N,N-dimethyl-cyclohexane-1-carboxamide]", "IC50": "< 150"}, {"smiles": "CS(=O)(=O)c1ccc(COc2coc(CN3Cc4ccccc4C3)cc2=O)cc1", "note": "[Compound 1, 2-(Isoindolin-2-ylmethyl)-5-((4-(methylsulfonyl)benzyl)oxy)-4H-pyran-4-one]", "IC50": "150 to 300"}, {"smiles": "Cn1nccc1S(=O)(=O)N1CCC(COc2coc(CN3Cc4ccccc4C3)cc2=O)CC1", "note": "[Compound 255, 2-(Isoindolin-2-ylmethyl)-5-((1-((1-methyl-1H-pyrazol-5-yl)sulfonyl)piperidin-4-yl)methoxy)-4H-pyran-4-one]", "IC50": "< 150"}, {"smiles": "CCS(=N)(=O)c1ccc(COc2coc(CN3Cc4ccccc4C3)cc2=O)cc1", "note": "(stereo not drawn) [Compound 101, 5-((4-(Ethylsulfonimidoyl)benzyl)oxy)-2-(isoindolin-2-ylmethyl)-4H-pyran-4-one]", "IC50": "150 to 300"}, {"smiles": "CS(=O)(=O)N1CCC(COc2coc(CN3Cc4ccccc4C3)cc2=O)C(O)C1", "note": "(stereo not drawn) [Compound 193, 5-((3-Hydroxy-1-(methylsulfonyl)piperidin-4-yl)methoxy)-2-(isoindolin-2-yl-methyl)-4H-pyran-4-one]", "IC50": "301 to 2000"}, {"smiles": "CS(=O)(=O)N[C@@H]1CC[C@H](COc2coc(CN3Cc4ccccc4C3)cc2=O)C1", "note": "(relative stereo) [Compound 276, Cis-N-(3-(((6-(Isoindolin-2-ylmethyl)-4-oxo-4H-pyran-3-yl)oxy)methyl)-cyclo-pentyl)-methanesulfonamide]", "IC50": "150 to 300"}]}]}
